Source: patent US8574563B2 (Bristol-Myers Squibb Company, priority 2006, dated 2013)
Like-named read-outs stand apart in the source and are kept apart here.

Test system: HCV 1b-377-neo replicon cells
Assay: HCV replicon assay, HCV 1b-377-neo replicon cells (1b FRET)
Format: cell-based, Hepatitis C virus genotype 1b
Settings: HCV 1b-377-neo replicon cells, HCV 1b genotype, read-out: EC50 range against HCV 1b (Table 2, Range)
Procedure, shortened: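 Compounds tested in HCV genotype 1b-377-neo replicon cells with a FRET read-out. Cells resistant to a reference NS5A inhibitor through a Y2065H NS5A mutation were run alongside wild-type cells.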

CN(C)C(C(=O)N1CCCC1c1nc(-c2ccc(-c3ccc(-c4cnc(C5CCCN5C(=O)Cc5csc6ccccc56)[nH]4)cc3)cc2)c[nH]1)c1ccccc1 [Example 94-54, (1R)-2-((2S)-2-(5-(4′-(2-((2S)-1-(1-benzothiophen-3-ylacetyl)-2-pyrrolidinyl)-1H-imidazol-5-yl)-4-biphenylyl)-1H-imidazol-2-yl)-1-pyrrolidinyl)-N,N-dimethyl-2-oxo-1-phenylethanamine] gave an EC50 of 1 to 999 pM.

In the case of CN(C)[C@@H](C(=O)N1CCC[C@H]1c1ncc(-c2ccc(-c3ccc(-c4cnc([C@@H]5CCCN5C(=O)Cc5noc6ccccc56)[nH]4)cc3)cc2)[nH]1)c1ccccc1 [Example 94-55, (1R)-2-((2S)-2-(5-(4′-(2-((2S)-1-(1,2-benzisoxazol-3-ylacetyl)-2-pyrrolidinyl)-1H-imidazol-5-yl)-4-biphenylyl)-1H-imidazol-2-yl)-1-pyrrolidinyl)-N,N-dimethyl-2-oxo-1-phenylethanamine], the EC50 (Hepatitis C virus) is reported as 1 to 999 pM.

For CN(C)[C@@H](C(=O)N1CCC[C@H]1c1ncc(-c2ccc(-c3ccc(-c4cnc([C@@H]5CCCN5C(=O)Cc5c[nH]c6ccccc56)[nH]4)cc3)cc2)[nH]1)c1ccccc1 [Example 94-56, (1R)-2-((2S)-2-(5-(4′-(2-((2S)-1-(1H-indol-3-ylacetyl)-2-pyrrolidinyl)-1H-imidazol-5-yl)-4-biphenylyl)-1H-imidazol-2-yl)-1-pyrrolidinyl)-N,N-dimethyl-2-oxo-1-phenylethanamine], the EC50 (Hepatitis C virus) was 1 to 999 pM.

Molecule O=C([C@@H]1CCCO1)N1CCC[C@H]1c1ncc(-c2ccc(-c3ccc(-c4cnc([C@@H]5CCCN5C(=O)[C@@H](c5ccccc5)N5CCCC5)[nH]4)cc3)cc2)[nH]1 [Example 95, 2-((2S)-1-((2R)-2-phenyl-2-(1-pyrrolidinyl)acetyl)-2-pyrrolidinyl)-5-(4′-(2-((2S)-1-((2S)-tetrahydro-2-furanylcarbonyl)-2-pyrrolidinyl)-1H-imidazol-5-yl)-4-biphenylyl)-1H-imidazole] has an EC50 (Hepatitis C virus) of 1 to 999 pM.

Work on O=C([C@@H](c1ccccc1)N1CCCC1)N1CCC[C@H]1c1ncc(-c2ccc(-c3ccc(-c4cnc([C@@H]5CCCN5C(=O)[C@@H](c5ccccc5)N5CCOCC5)[nH]4)cc3)cc2)[nH]1 [Example 96, 4-((1R)-2-oxo-1-phenyl-2-((2S)-2-(5-(4′-(2-((2S)-1-((2R)-2-phenyl-2-(pyrrolidinyl)acetyl)-2-pyrrolidinyl)-1H-imidazol-5-yl)-4-biphenylyl)-1H-imidazol-2-yl)-1-pyrrolidinyl)ethyl)morpholine] yielded an EC50 of 1 to 999 pM.

O=C(C(c1ccccc1)N1CCC(O)CC1)N1CCC[C@H]1c1ncc(-c2ccc(-c3ccc(-c4cnc([C@@H]5CCCN5C(=O)[C@@H](c5ccccc5)N5CCCC5)[nH]4)cc3)cc2)[nH]1 (stereo partly drawn) [Example 97, 1-(2-oxo-1-phenyl-2-((2S)-2-(5-(4′-(2-((2S)-1-((2R)-2-phenyl-2-(1-pyrrolidinyl)acetyl)-2-pyrrolidinyl)-1H-imidazol-5-yl)-4-biphenylyl)-1H-imidazol-2-yl)-1-pyrrolidinyl)ethyl)-4-piperidinol] showed an EC50 (Hepatitis C virus) of 1 to 999 pM.

Work on CN1CCN(C(C(=O)N2CCC[C@H]2c2ncc(-c3ccc(-c4ccc(-c5cnc([C@@H]6CCCN6C(=O)[C@@H](c6ccccc6)N6CCCC6)[nH]5)cc4)cc3)[nH]2)c2ccccc2)CC1 (stereo partly drawn) [Example 98, 1-methyl-4-(2-oxo-1-phenyl-2-((2S)-2-(5-(4′-(2-((2S)-1-((2R)-2-phenyl-2-(1-pyrrolidinyl)acetyl)-2-pyrrolidinyl)-1H-imidazol-5-yl)-4-biphenylyl)-1H-imidazol-2-yl)-1-pyrrolidinyl)ethyl)piperazine] yielded an EC50 (Hepatitis C virus) of 1 to 999 pM.

For CCN(CC)[C@@H](C(=O)N1CCC[C@H]1c1ncc(-c2ccc(-c3ccc(-c4cnc([C@@H]5CCCN5C(=O)[C@@H](c5ccccc5)N5CCCC5)[nH]4)cc3)cc2)[nH]1)c1ccccc1 [Example 99, (1R)-N,N-diethyl-2-oxo-1-phenyl-2-((2S)-2-(5-(4′-(2-((2S)-1-((2R)-2-phenyl-2-(1-pyrrolidinyl)acetyl)-2-pyrrolidinyl)-1H-imidazol-5-yl)-4-biphenylyl)-1H-imidazol-2-yl)-1-pyrrolidinyl)ethanamine], the EC50 (Hepatitis C virus) was 1 to 999 pM.

COC(=O)N[C@@H](C(=O)N1CCC[C@H]1c1ncc(-c2ccc(-c3ccc(-c4cnc([C@@H]5CCCN5C(=O)[C@@H](c5ccccc5)N5CCCC5)[nH]4)cc3)cc2)[nH]1)c1ccccc1 [Example 100, methyl ((1R)-2-oxo-1-phenyl-2-((2S)-2-(5-(4′-(2-((2S)-1-((2R)-2-phenyl-2-(1-pyrrolidinyl)acetyl)-2-pyrrolidinyl)-1H-imidazol-5-yl)-4-biphenylyl)-1H-imidazol-2-yl)-1-pyrrolidinyl)ethyl)carbamate] was tested, and the EC50 (Hepatitis C virus) was 1 to 999 pM.

With COC(=O)N[C@@H](C)C(=O)N1CCC[C@H]1c1ncc(-c2ccc(-c3ccc(-c4cnc([C@@H]5CCCN5C(=O)[C@@H](c5ccccc5)N5CCCC5)[nH]4)cc3)cc2)[nH]1 [Example 101, methyl ((1S)-1-methyl-2-oxo-2-((2S)-2-(5-(4′-(2-((2S)-1-((2R)-2-phenyl-2-(1-pyrrolidinyl)acetyl)-2-pyrrolidinyl)-1H-imidazol-5-yl)-4-biphenylyl)-1H-imidazol-2-yl)-1-pyrrolidinyl)ethyl)carbamate] the EC50 (Hepatitis C virus) was 1 to 999 pM.

COC(=O)NCC(=O)N1CCC[C@H]1c1ncc(-c2ccc(-c3ccc(-c4cnc([C@@H]5CCCN5C(=O)[C@@H](c5ccccc5)N5CCCC5)[nH]4)cc3)cc2)[nH]1 [Example 102, methyl (2-oxo-2-((2S)-2-(5-(4′-(2-((2S)-1-((2R)-2-phenyl-2-(1-pyrrolidinyl)acetyl)-2-pyrrolidinyl)-1H-imidazol-5-yl)-4-biphenylyl)-1H-imidazol-2-yl)-1-pyrrolidinyl)ethyl)carbamate] showed an EC50 (Hepatitis C virus) of 1 to 999 pM.

C[C@@H](C(=O)N1CCC[C@H]1c1ncc(-c2ccc(-c3ccc(-c4cnc([C@@H]5CCCN5C(=O)[C@@H](c5ccccc5)N5CCCC5)[nH]4)cc3)cc2)[nH]1)N(C)C [Example 103, (2S)-N,N-dimethyl-1-oxo-1-((2S)-2-(5-(4′-(2-((2S)-1-((2R)-2-phenyl-2-(1-pyrrolidinyl)acetyl)-2-pyrrolidinyl)-1H-imidazol-5-yl)-4-biphenylyl)-1H-imidazol-2-yl)-1-pyrrolidinyl)-2-propanamine] gave an EC50 (Hepatitis C virus) of 1 to 999 pM.

Work on O=C(C(c1ccccc1)N1CCC(c2ccccc2)CC1)N1CCC[C@H]1c1ncc(-c2ccc(-c3ccc(-c4c[nH]c([C@@H]5CCCN5C(=O)[C@H]5CCCO5)n4)cc3)cc2)[nH]1 (stereo partly drawn) [Example 103-1, 1-(2-oxo-1-phenyl-2-((2S)-2-(5-(4′-(2-((2S)-1-((2R)-tetrahydro-2-furanylcarbonyl)-2-pyrrolidinyl)-1H-imidazol-4-yl)-4-biphenylyl)-1H-imidazol-2-yl)-1-pyrrolidinyl)ethyl)-4-phenylpiperidine] yielded an EC50 (Hepatitis C virus) of 1 to 999 pM.

With O=C(C(c1ccccc1)N1CCC(c2ccccc2)CC1)N1CCC[C@H]1c1ncc(-c2ccc(-c3ccc(-c4c[nH]c([C@@H]5CCCN5C(=O)[C@H]5CCCO5)n4)cc3)cc2)[nH]1 (stereo partly drawn) [Example 103-2, 1-(2-oxo-1-phenyl-2-((2S)-2-(5-(4′-(2-((2S)-1-((2R)-tetrahydro-2-furanylcarbonyl)-2-pyrrolidinyl)-1H-imidazol-4-yl)-4-biphenylyl)-1H-imidazol-2-yl)-1-pyrrolidinyl)ethyl)-4-phenylpiperidine] the EC50 was 1 to 999 pM.

In the case of CN1CCN(C(C(=O)N2CCC[C@H]2c2ncc(-c3ccc(-c4ccc(-c5c[nH]c([C@@H]6CCCN6C(=O)[C@H]6CCCO6)n5)cc4)cc3)[nH]2)c2ccccc2)CC1 (stereo partly drawn) [Example 103-3, 1-methyl-4-(2-oxo-1-phenyl-2-((2S)-2-(5-(4′-(2-((2S)-1-((2R)-tetrahydro-2-furanylcarbonyl)-2-pyrrolidinyl)-1H-imidazol-4-yl)-4-biphenylyl)-1H-imidazol-2-yl)-1-pyrrolidinyl)ethyl)piperazine], the EC50 (Hepatitis C virus) is reported as 1 to 999 pM.

In the case of CN1CCN(C(C(=O)N2CCC[C@H]2c2ncc(-c3ccc(-c4ccc(-c5c[nH]c([C@@H]6CCCN6C(=O)[C@H]6CCCO6)n5)cc4)cc3)[nH]2)c2ccccc2)CC1 (stereo partly drawn) [Example 103-4, 1-methyl-4-(2-oxo-1-phenyl-2-((2S)-2-(5-(4′-(2-((2S)-1-((2R)-tetrahydro-2-furanylcarbonyl)-2-pyrrolidinyl)-1H-imidazol-4-yl)-4-biphenylyl)-1H-imidazol-2-yl)-1-pyrrolidinyl)ethyl)piperazine], the EC50 is reported as 1 to 999 pM.

Molecule O=C(C(c1ccccc1)N1CCNCC1)N1CCC[C@H]1c1ncc(-c2ccc(-c3ccc(-c4c[nH]c([C@@H]5CCCN5C(=O)[C@H]5CCCO5)n4)cc3)cc2)[nH]1 (stereo partly drawn) [Example 103-7, 1-(2-oxo-1-phenyl-2-((2S)-2-(5-(4′-(2-((2S)-1-((2R)-tetrahydro-2-furanylcarbonyl)-2-pyrrolidinyl)-1H-imidazol-4-yl)-4-biphenylyl)-1H-imidazol-2-yl)-1-pyrrolidinyl)ethyl)piperazine] has an EC50 (Hepatitis C virus) of 1 to 999 pM.

O=C1CN(C(C(=O)N2CCC[C@H]2c2ncc(-c3ccc(-c4ccc(-c5c[nH]c([C@@H]6CCCN6C(=O)[C@H]6CCCO6)n5)cc4)cc3)[nH]2)c2ccccc2)CCN1 (stereo partly drawn) [Example 103-8, 4-(2-oxo-1-phenyl-2-((2S)-2-(5-(4′-(2-((2S)-1-((2R)-tetrahydro-2-furanylcarbonyl)-2-pyrrolidinyl)-1H-imidazol-4-yl)-4-biphenylyl)-1H-imidazol-2-yl)-1-pyrrolidinyl)ethyl)-2-piperazinone] gave an EC50 (Hepatitis C virus) of 1 to 999 pM.

CN1CCN(C(C(=O)N2CCC[C@H]2c2ncc(-c3ccc(-c4ccc(-c5cnc([C@@H]6CCCN6C(=O)[C@@H]6CCCO6)[nH]5)cc4)cc3)[nH]2)c2ccccc2)CC1 (stereo partly drawn) [Example 104, 1-methyl-4-(2-oxo-1-phenyl-2-((2S)-2-(5-(4′-(2-((2S)-1-((2S)-tetrahydro-2-furanylcarbonyl)-2-pyrrolidinyl)-1H-imidazol-5-yl)-4-biphenylyl)-1H-imidazol-2-yl)-1-pyrrolidinyl)ethyl)piperazine] showed an EC50 (Hepatitis C virus) of 1 to 999 pM.
